One molecule from US6949558B2, “Enhancement of taxane-based chemotherapy by a CDK1 antagonist” (Yale University, priority 2001, dated 2005) can be followed below.

One test deals with HeLa cells. In words: Apoptosis by DNA content analysis and flow cytometry in HeLa cells. The class given is cell-based, human. The settings on record: HeLa. How it is done: Cervical carcinoma HeLa (functionally inactivated p53) cells or breast carcinoma MCF-7 (wild type p53) cells were plated at 50-60% confluency in C-6 wells. Cells were treated with taxol at 0.2 μM for 0 to 32 hours in complete media.
After 4, 8, 16, and 32 hours of incubation, without removing taxol from the wells, purvalanol A was added at three increasing concentrations, 1, 10 and 20 uM (FIG. 1). A control was performed with addition of purvalanol A at the 0-h time point.
The cell populations were harvested at increasing time intervals from the 0-h time point or corresponding to the addition of purvalanol A. Apoptosis was analyzed by DNA content analysis and flow cytometry (DAPI staining).

A further test has as its system HT2-19 cells. In words: Apoptosis and cell cycle in HT2-19 cells with conditional inactivation of p34^cdc2. The test is classed as cell-based. Particulars: taxol 0.2 μM. From the text: Cell Cultures and Antibodies: Breast carcinoma MCF-7, prostate carcinoma PC3, and cervical carcinoma HeLa cells (American Type Culture Collection, Manassas, Va.) were maintained in culture according to the supplier's recommendations. HT2-19 cells with conditional inactivation of the p34^cdc2 gene were described previously (J. E. Itzhaki et al. (1997) Nat. Gen. 15: 258-265). In this cell line, removal of IPTG from the culture medium results in inactivation of the second p34^cdc2 allele (J. E. Itzhaki et al. (1997) Nat. Gen. 15: 258-265). For spindle checkpoint activation, the various cell types were treated with taxol (0.2-2 μM, Sigma Chemical Co., St. Louis, Mo.), vincristine (100 nM, Sigma) or cisplatin (3 μM, Sigma) for 16 h at 37° C. For genetic ablation of p34^cdc2, HT2-19 cells were washed and cultivated in the absence of IPTG for 48-72 h before analysis of apoptosis (see below) or expression of survivin or p34^cdc2, by Western blotting. In some experiments, taxol (0.2 μM) was added to HT2-19 cells simultaneously with the withdrawal of IPTG, and cells were processed as described above. […] For viral transduction, HT2-19 cells in the absence of IPTG were infected with pAd-GFP or pAd-Survivin at multiplicity of infection (m.o.i.) of 50, and analyzed after a 48-72 h culture for changes in cell cycle progression and apoptosis. […]

In test [1] the test system is p34^cdc2 kinase activity (MPM-2 epitope) in HeLa cells. In words: MPM-2 mitotic phosphoepitope expression (p34^cdc2 kinase activity) in HeLa cells. The class given is cell-based, human. Particulars: HeLa; taxol 0.2 μM, sustained for a 32-h culture.
In test [2] the test system is p34^cdc2 kinase activity (MPM-2 epitope) in MCF-7 cells. In words: MPM-2 mitotic phosphoepitope expression (p34^cdc2 kinase activity) in MCF-7 cells. The test is classed as cell-based, human. How it is done: MPM-2 Mitotic Phosphoepitope Expression: For detection of mitotic phosphoproteins (D. D. Vandre et al. (1989) J. Cell Sci. 94: 245-58), MCF-7 cells (1-2×10^5 cells/60 mm dish) were treated with taxol (2 μM), adriamycin (100 nM), 50 or 300 J/m^2 UVB irradiation and cultured for 0, 8, 16, 24 or 36 h at 37° C. Cells were fixed in 70% ethanol, labeled with MPM-2 antibody (6 μg/ml) followed by addition of goat anti-mouse FITC (Boehringer Mannheim) for 1 h at 22° C. in the presence of 5 μg/ml propidium iodide (PI) containing 50 μg/ml RNase A. Samples were analyzed on a FACScan (Becton Dickinson, Mountain View, Calif.), using CellQuest software.
MPM-2 Mitotic Phosphoepitope Expression: For detection of mitotic phosphoproteins (D. D. Vandre et al. (1989) J. Cell Sci. 94: 245-258), MCF-7 cells (1-2×10^5 cells/60 mm dish) were treated with taxol (0.2 μM), or vincristine (100 nM) for increasing time intervals (8-36 h) at 37° C. Cells were fixed in 70% ethanol, labeled with MPM-2 antibody (6 μg/ml; Upstate Biotechnology, Lake Placid, N.Y.) followed by addition of goat anti-mouse FITC (Boehringer Mannheim) for 1 h at 22° C. in the presence of 5 μg/ml propidium iodide containing 50 μg/ml RNAse A. Samples were analyzed on a FACScan (Becton Dickinson, Mountain View, Calif.), using CellQuest software. Data are expressed as %MPM-2 positive cells in the entire population.

Test [3] deals with survivin expression in PC3 cells. In words: Survivin expression by Western blotting in PC3 cells. The test is classed as cell-based. The settings on record: taxol. On the technique in general: Immunoblotting shows a protein as a band on a membrane.
The test system of another test is MCF-7 tumors. In words: Breast cancer xenograft model (Example 8). The test is classed as in vivo, CB17 SCID/beige mice. Particulars: taxol alone 2.5 or 5 mg/kg, Purvalanol A alone 20 mg/kg, i.p. How it is done: Breast Cancer Xenograft Model: All experiments involving animals were approved by the institutional animal cure and use committee. Six- to eight-week old female CB17 SCID/beige mice (Taconic Farms, Germantown, N.Y.) were injected s.c. into the flanks with 2.5×10^6 exponentially growing MCF-7 cells in 250 μl of sterile PBS, pH 7.4. […] Animals were injected i.p. with taxol alone (2.5 or 5 mg/kg), Purvalanol A alone (20 mg/kg) or the sequential combination of taxol-Purvalanol A for two consecutive days each divided by a day with no treatment. For single agent treatment, vehicle was given in place of taxol or Purvalanol A with the same schedule. Each complete cycle was separated by 2 d without treatment. Tumor volume was measured in the three dimensions with a caliper. Animals with tumor burden >3000 mm^3 were sacrificed (Survival).
Statistical Analysis: All in vitro experiments were repeated at least three times. […] The survival curves were compared using the log-rank test. This test generates a P value testing the null hypothesis that the survival curves are identical in the overall populations.

The subject of another test is caspase-9. In words: Caspase-9 processing by Western blotting in HeLa cells. Particulars: taxol 0.2 μM, Purvalanol A 20 μM or sequential combination, 16 h.

For the molecule `CC(=O)O[C@H]1C(=O)[C@@]2(C)[C@H]([C@H](OC(=O)c3ccccc3)[C@]3(O)C[C@H](OC(=O)[C@H](O)[C@@H](NC(=O)c4ccccc4)c4ccccc4)C(C)=C1C3(C)C)[C@]1(OC(C)=O)CO[C@@H]1C[C@@H]2O` [taxol, Paclitaxel], the “cell population with hypodiploid (apoptotic) DNA content / cell death” value with HeLa cells (16 h, taxol 0.2 μM, Purvalanol A 20 μM, alone or sequential) is 16%. Moreover, the hypodiploid cells in the test on HeLa cells (taxol 0.2 μM alone (Example 1)) was ~10%. In addition, in the test with HeLa cells (taxol 0.2 μM for 0 to 32 hours), the “apoptosis (hypodiploid cell fraction)” value is reported as “virtually no apoptosis”. For the same molecule, the cell cycle arrest result in the test on HeLa cells (taxol 0.2 μM or purvalanol A 1-20 uM alone (Examples 1, 2)) is listed as “uniform M arrest”; with HT2-19 cells (HT2-19, p34^cdc2 +/− (IPTG present)) it was “homogeneous mitotic arrest”. In the test on HeLa cells (taxol 0.2 μM, up to 32 h (Example 8)), the apoptosis result is on record as “negligible induction of apoptosis”. The “apoptosis vs untreated IPTG− cultures” value in the test with HT2-19 cells (IPTG− HT2-19 cells (p34^cdc2 −/−)) is “considerably increased apoptosis”. Also, the “p34^cdc2 kinase activity” value in test [1] is on record as “elevated p34^cdc2 kinase activity”. The MPM-2 expression result in test [2] (taxol 2 μM (Example 7)) is given as “elevated MPM-2 expression”. For the same molecule, in test [2] (taxol 0.2-2 μM (Example 8)), the “p34^cdc2 kinase activity (MPM-2 phosphoepitope expression)” value is on record as “elevated p34^cdc2 kinase activity”. Moreover, the survivin expression result in test [3] is reported as “increased expression of survivin”. Further, the “kinetics of tumor growth” value in the test on MCF-7 tumors is recorded as “did not affect the kinetics of tumor growth”. For the same molecule, the caspase-9 processing entry in the test with caspase-9 is “did not result in significant caspase-9 cleavage”.
